The values that follow come from patent publication US20230000876A1, “TREATING CANCERS WITH A CYCLIN-DEPENDENT KINASE INHIBITOR” (Nuvation Bio Inc., priority 2021, published 2023).

One test deals with VCap prostate cancer. The test is described as follows: Non-castrated VCap prostate cancer model. The test is classed as in vivo, male CB17/Scid mice. Conditions: Group 7: Abiraterone 350 mg/kg p.o. QD * 26 days. The method, then: Compound (I), enzalutamide, and abiraterone were tested in non-castrated VCap prostate cancer model in male CB17/Scid mice.
All treatment groups reduced mean tumor volume.

Another test has as its system xMDA-MB-361 breast tumor. The test can be described thus: xMDA-MB-361 breast tumor model (ER-positive/HER2-positive). The format is in vivo, female BALB/c nude mice. To be noted: Group 3: Tucatinib 60 mg/kg PO QD*42 days. As for the experimental part:
Trastuzumab, tucatinib, Compound (I), and fulvestrant were tested in a xMDA-MB-361 breast tumor model (ER-positive/HER2-positive) on female BALB/c nude mice.

The test system of the next test is xBT474 breast tumor. The test is described as follows: xBT474 breast tumor model (ER-negative/HER2-positive). Conditions: Group 3: Tucatinib 25 mg/kg PO QD*28 days.

Turning to `C[C@]12CC[C@H](O)CC1=CC[C@@H]1[C@@H]2CC[C@]2(C)C(c3cccnc3)=CC[C@@H]12` [Abiraterone, abiraterone, reference compound], the “Tumor volume (mean ± SEM)” value came out at 171.7 ± 5.9 mm^3 in the test on VCap prostate cancer (Day 0); 278 ± 22.9 mm^3 in the test with VCap prostate cancer (Day 4); 365.9 ± 35.9 mm^3 with VCap prostate cancer (Day 7); 582.6 ± 43.3 mm^3 with VCap prostate cancer (Day 11); 762.2 ± 73.7 mm^3 in the test on VCap prostate cancer (Day 14); 985.6 ± 86.7 mm^3 with VCap prostate cancer (Day 18). The “Tumor volume (mean ± SEM)” value is 1056.1 ± 83.2 mm^3 with VCap prostate cancer (Day 21) and 1184.9 ± 82.6 mm^3 in the test with VCap prostate cancer (Day 25).

Consider `Cc1cc(Nc2ncnc3ccc(NC4=NC(C)(C)CO4)cc23)ccc1Oc1ccn2ncnc2c1` [Tucatinib], for which the “Tumor volume (mean ± SEM)” value was found to be 157 ± 11 mm^3 in the test on xMDA-MB-361 breast tumor (Day 0); 148 ± 11 mm^3 in the test on xMDA-MB-361 breast tumor (Day 3); 156 ± 20 mm^3 in the test with xMDA-MB-361 breast tumor (Day 7); 219 ± 30 mm^3 with xMDA-MB-361 breast tumor (Day 10); 408 ± 59 mm^3 in the test on xMDA-MB-361 breast tumor (Day 14); 658 ± 112 mm^3 in the test with xMDA-MB-361 breast tumor (Day 17). In addition, the “Tumor volume (mean ± SEM)” value in the test on xMDA-MB-361 breast tumor (Day 21) is given as 970 ± 206 mm^3; with xMDA-MB-361 breast tumor (Day 24), 1185 ± 222 mm^3; in the test with xMDA-MB-361 breast tumor (Day 28), 1496 ± 250 mm^3; in the test on xMDA-MB-361 breast tumor (Day 31), 1707 ± 309 mm^3; in the test with xMDA-MB-361 breast tumor (Day 35), 1580 ± 240 mm^3; in the test on xMDA-MB-361 breast tumor (Day 38), 1675 ± 283 mm^3. Also, the “Tumor volume (mean ± SEM)” value in the test with xMDA-MB-361 breast tumor (Day 42) was 1670 ± 344 mm^3; in the test with xBT474 breast tumor (Day 0) it was 146 ± 10 mm^3; in the test on xBT474 breast tumor (Day 4) it was 177 ± 11 mm^3; with xBT474 breast tumor (Day 7) it was 199 ± 19 mm^3; with xBT474 breast tumor (Day 11), 168 ± 16 mm^3; with xBT474 breast tumor (Day 14) it was 169 ± 15 mm^3. Also, the “Tumor volume (mean ± SEM)” value in the test with xBT474 breast tumor (Day 18) came to 234 ± 28 mm^3; in the test on xBT474 breast tumor (Day 21), 288 ± 35 mm^3; in the test on xBT474 breast tumor (Day 25), 341 ± 47 mm^3; in the test with xBT474 breast tumor (Day 28), 397 ± 68 mm^3; in the test with xBT474 breast tumor (Day 32), 406 ± 96 mm^3; in the test on xBT474 breast tumor (Day 35) it was 488 ± 112 mm^3. The “Tumor volume (mean ± SEM)” value in the test with xBT474 breast tumor (Day 39) worked out at 420 ± 91 mm^3; in the test with xBT474 breast tumor (Day 42) it was 431 ± 89 mm^3; in the test on xBT474 breast tumor (Day 46) it was 421 ± 81 mm^3.
